One may read the IC50 as the concentration that inhibits the measured activity by half.

Assay [1] has as its system IKKε-mediated phosphorylation of IRF3. As to the kind of experiment: In-situ phosphorylation of IRF3 (pIRF3 Ser396 ELISA) in HEK293T cells cotransfected with IRF3 and IKKε. The assay is classed as cell-based. The conditions noted are these: Homo sapiens, HEK-293T; HEK293T cells, 20 hours, text bins; read-out: IC50 for inhibition of the in-situ IKKε-mediated phosphorylation of IRF3. As to the method:
HEK293T cells were cotransfected in a 10-cm dish with IRF3 and IKKε expression plasmids using Lipofectamine 2000 (Invitrogen, Carlsbad, Calif.). The following day, cells were replated at 20,000 per well in 96-well plates and treated with test compounds (compounds according to Formula I) for 20 hours. Cell lysates were prepared and analyzed using an ELISA for phospho-Ser396 (anti-IRF3 capture antibody, Santa Cruz Biotechnology, Inc., Santa Cruz, Calif.; anti-p-Ser396 IRF3 detection antibody, Cell Signaling, Danvers, Mass.). pIRF3 levels in compound treated cells were normalized to DMSO treated cells (no compound). Cell viability was assayed in a parallel set of plates to monitor cytotoxic effects of the test compounds (CellTiter-Glo, Promega, Inc., Madison, Wis.). TBK1 activity was tested by Western blotting using a phospho-specific IRF7 antibody. Similar to above, HEK293T cells were transfected with IRF7 and TBK1 expression plasmids. Cells were seeded in 12-well plates at 150,000 per well and treated overnight with test compounds. Protein lysates were prepared and processed for Western blotting followed by detection using a phosphor-Ser477/Ser479 IRF7 antibody (BD Biosciences, San Jose, Calif.)
On the technique in general: In an ELISA, binding on a coated surface is turned into a signal by an enzyme label.

In another assay the target is T1, IKKε (Homo sapiens, UniProt Q14164).
T1 construct: His-tag; made in house; host or cells: Sf9 insect cells
T1 sequence (Q14164 1-716): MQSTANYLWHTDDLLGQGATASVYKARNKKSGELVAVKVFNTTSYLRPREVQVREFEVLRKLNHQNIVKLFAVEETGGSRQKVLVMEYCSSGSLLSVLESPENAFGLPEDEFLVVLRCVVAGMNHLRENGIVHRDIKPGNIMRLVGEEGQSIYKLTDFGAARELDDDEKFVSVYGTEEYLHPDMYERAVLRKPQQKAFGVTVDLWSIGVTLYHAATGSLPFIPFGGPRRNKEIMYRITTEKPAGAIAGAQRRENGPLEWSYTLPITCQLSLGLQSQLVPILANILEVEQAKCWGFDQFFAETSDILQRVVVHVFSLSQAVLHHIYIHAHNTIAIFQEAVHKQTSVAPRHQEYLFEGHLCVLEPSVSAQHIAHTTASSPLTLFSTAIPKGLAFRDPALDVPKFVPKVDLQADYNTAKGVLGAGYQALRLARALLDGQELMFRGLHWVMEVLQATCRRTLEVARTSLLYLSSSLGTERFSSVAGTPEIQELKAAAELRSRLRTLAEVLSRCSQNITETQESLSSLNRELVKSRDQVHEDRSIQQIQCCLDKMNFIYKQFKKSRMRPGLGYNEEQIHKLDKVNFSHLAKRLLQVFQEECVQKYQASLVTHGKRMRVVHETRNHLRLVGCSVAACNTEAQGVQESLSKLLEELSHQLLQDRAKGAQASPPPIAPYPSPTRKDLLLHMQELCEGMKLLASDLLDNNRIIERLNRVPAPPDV
Description: In-vitro IKKε kinase assay ([γ33]ATP filter-plate). The conditions noted are these: text bins; read-out: IC50 for inhibition of the kinase activity of IKKε. In kind it is biochemical. In outline: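 His-tagged IKKε and TBK1 from Sf9 cells were assayed with myelin basic protein or casein and [γ33]ATP at 2×Km ATP (32 μM for IKKε, 60 μM for TBK1). Enzyme was 0.1 or 0.015 μg/ml for IKKε and 0.1 or 0.02 μg/ml for TBK1 (normal/sensitized). Reactions ran 30-45 min, were filter-captured, scintillation-counted, and normalized to DMSO after background subtraction.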

`COC1CN(C(C)c2ccc(Nc3nccc(-c4ccc(OC5CCOCC5)c(C#N)c4)n3)cc2)C1` (stereo not shown) [compound 571, 5-[2-({4-[1-(3-Methoxyazetidin-1-yl)ethyl]phenyl}amino)pyrimidin-4-yl]-2-(tetrahydro-2H-pyran-4-yloxy)benzonitrile]: the IC50 in assay [1] was less than 100 nM; on IKKε, less than 5 nM.

With `N#Cc1cc(-c2ccnc(Nc3ccc(N4CCN(CCO)CC4)cc3)n2)ccc1OC1CCOCC1` [compound 512, 5-[2-({4-[4-(2-hydroxyethyl)piperazin-1-yl]phenyl}amino)pyrimidin-4-yl]-2-(tetrahydro-2H-pyran-4-yloxy)benzonitrile], the IC50 was less than 100 nM in assay [1] and less than 5 nM on IKKε.

Consider `CN(C)C1CCN(C(=O)Nc2cccc(Nc3nccc(-c4ccc(OC5CCOCC5)c(C#N)c4)n3)c2)C1` (stereo not shown) [compound 667, N-[3-({4-[3-Cyano-4-(tetrahydro-2H-pyran-4-yloxy)phenyl]pyrimidin-2-yl}amino)phenyl]-3-(dimethylamino) pyrrolidine-1-carboxamide], for which the 50% inhibitory concentration (IC50) was less than 100 nM in assay [1] and less than 5 nM at IKKε.

Consider `N#Cc1cc(-c2ccnc(Nc3ccc(-n4cncn4)cc3)n2)ccc1OC1CCOCC1` [compound 580, 2-(Tetrahydro-2H-pyran-4-yloxy)-5-(2-{[4-(1H-1,2,4-triazol-1-yl)phenyl]amino}pyrimidin-4-yl)benzonitrile], for which the IC50 in assay [1] was 250 to 500 nM; at IKKε, less than 5 nM.

As for `COc1cc(Nc2nccc(-c3ccc(OC4CCOCC4)c(C#N)c3)n2)ccc1-n1cnnn1` [compound 664, 5-(2-{[3-Methoxy-4-(1H-tetrazol-1-yl)phenyl]amino}pyrimidin-4-yl)-2-(tetrahydro-2H-pyran-4-yloxy)benzonitrile], the IC50 is less than 100 nM in assay [1] and less than 5 nM at IKKε.

With `N#Cc1cc(-c2ccnc(Nc3cccc(-n4cccn4)c3)n2)ccc1OC1CCOCC1` [compound 578, 5-(2-{[3-(1H-Pyrazol-1-yl)phenyl]amino}pyrimidin-4-yl)-2-(tetrahydro-2H-pyran-4-yloxy)benzonitrile], the figures for the IC50 (in assay [1]; at IKKε) were 250 to 500 nM and less than 5 nM, respectively.

In the case of `N#Cc1cc(-c2ccnc(Nc3cccc(CN4CCCC4)c3)n2)ccc1OC1CCOCC1` [compound 542, 5-(2-{[3-(Pyrrolidin-1-ylmethyl)phenyl]amino}pyrimidin-4-yl)-2-(tetrahydro-2H-pyran-4-yloxy)benzonitrile], the results for the IC50 (in assay [1]; at IKKε) were less than 100 nM and less than 5 nM, respectively.

On to `CN(C)C1CCN(c2cccc(Nc3nccc(-c4ccc(OC5CCOCC5)c(C#N)c4)n3)c2)C1` (stereo not shown) [compound 591, 5-[2-({3-[3-(Dimethylamino)pyrrolidin-1-yl]phenyl}amino)pyrimidin-4-yl]-2-(tetrahydro-2H-pyran-4-yloxy)benzonitrile], for which the IC50 in assay [1] was 100 to 250 nM; at IKKε it was less than 5 nM.

On to `COCC(=O)Nc1cccc(Nc2nccc(-c3ccc(OC4CCOCC4)c(C#N)c3)n2)c1` [compound 647, N-[3-({4-[3-Cyano-4-(tetrahydro-2H-pyran-4-yloxy)phenyl]pyrimidin-2-yl}amino)phenyl]-2-methoxyacetamide], for which the IC50 in assay [1] is less than 100 nM; on IKKε, less than 5 nM.

For the molecule `Cn1ccc(C(=O)Nc2cccc(Nc3nccc(-c4ccc(OC5CCOCC5)c(C#N)c4)n3)c2)n1` [compound 547, N-[3-({4-[3-Cyano-4-(tetrahydro-2H-pyran-4-yloxy)phenyl]pyrimidin-2-yl}amino)phenyl]-1-methyl-1H-pyrazole-3-carboxamide], the half-maximal inhibitory concentration (IC50) was 100 to 250 nM in assay [1] and less than 5 nM on IKKε.

With `CN(C)Cc1cccc(Nc2nccc(-c3ccc(OC4CCOCC4)c(C#N)c3)n2)c1` [compound 548, 5-[2-({3-[(Dimethylamino)methyl]phenyl}amino)pyrimidin-4-yl]-2-(tetrahydro-2H-pyran-4-yloxy)benzonitrile], the IC50 was less than 100 nM in assay [1] and less than 5 nM on IKKε.

With `C[C@H](O)C(=O)N1CCC(Oc2ccc(-c3ccnc(Nc4ccc(F)c(OCCN)c4)n3)cc2C#N)CC1` [compound 655], the IC50 is 250 to 500 nM in assay [1] and less than 5 nM on IKKε.

Regarding `N#Cc1cc(-c2ccnc(Nc3ccc(/C=C/CN4CCOCC4)cc3)n2)ccc1OC1CCOCC1` [compound 614, 5-[2-({4-[(1E)-3-(Morpholin-4-yl)prop-1-en-1-yl]phenyl}amino)pyrimidin-4-yl]-2-(tetrahydro-2H-pyran-4-yloxy)benzonitrile], the results for the IC50 (in assay [1]; on IKKε) were 250 to 500 nM and less than 5 nM, respectively.

As to `COC1CN(Cc2ccc(Nc3nccc(-c4ccc(O[C@@H]5CCN(C(=O)CO)C5)c(C#N)c4)n3)cc2)C1` [compound 658, 2-{[(3R)-1-(Hydroxyacetyl)pyrrolidin-3-yl]oxy}-5-[2-({4-[(3-methoxyazetidin-1-yl)methyl]phenyl}amino)pyrimidin-4-yl]benzonitrile], the IC50 in assay [1] is 250 to 500 nM; on IKKε it was less than 5 nM.

As to `N#Cc1cc(-c2ccnc(Nc3ccc(F)c(OC4CCNC4)c3)n2)ccc1OC1CCOCC1` (stereo not shown) [compound 541, 5-(2-{[4-Fluoro-3-(pyrrolidin-3-yloxy)phenyl]amino}pyrimidin-4-yl)-2-(tetrahydro-2H-pyran-4-yloxy)benzonitrile], the IC50 was 100 to 250 nM in assay [1] and less than 5 nM at IKKε.

`Cc1cn(Cc2cccc(Nc3nccc(-c4ccc(OC5CCOCC5)c(C#N)c4)n3)c2)cn1` [compound 653, 5-[2-({3-[(4-Methyl-1H-imidazol-1-yl)methyl]phenyl}amino)pyrimidin-4-yl]-2-(tetrahydro-2H-pyran-4-yloxy)benzonitrile]: the IC50 in assay [1] was less than 100 nM; on IKKε it was less than 5 nM.

For the molecule `CC(=O)Nc1cccc(Nc2nccc(-c3ccc(OC4CCOCC4)c(C#N)c3)n2)c1` [compound 656, N-[3-({4-[3-Cyano-4-(tetrahydro-2H-pyran-4-yloxy)phenyl]pyrimidin-2-yl}amino)phenyl] acetamide], the IC50 in assay [1] is less than 100 nM; on IKKε, less than 5 nM.

As for `N#Cc1cc(-c2ccnc(Nc3ccc(F)c(OCC4COCCN4)c3)n2)ccc1OC1CCOCC1` (stereo not shown) [compound 545], the IC50 in assay [1] was 250 to 500 nM; at IKKε, less than 5 nM.

On to `COCCC(=O)Nc1cccc(Nc2nccc(-c3ccc(OC4CCOCC4)c(C#N)c3)n2)c1` [compound 538, N-[3-({4-[3-Cyano-4-(tetrahydro-2H-pyran-4-yloxy)phenyl]pyrimidin-2-yl}amino)phenyl]-3-methoxypropanamide], for which the IC50 in assay [1] is less than 100 nM; on IKKε, less than 5 nM.

On to `CC(C)(O)C(=O)Nc1cccc(Nc2nccc(-c3ccc(OC4CCOCC4)c(C#N)c3)n2)c1` [compound 563, N-[3-({4-[3-Cyano-4-(tetrahydro-2H-pyran-4-yloxy)phentyl]pyrimidin-2-yl}amino)phenyl]-2-hydroxy-2-methylpropanamide], for which the figures for the IC50 (in assay [1]; at IKKε) were 100 to 250 nM and less than 5 nM, respectively.

For `N#Cc1cc(-c2ccnc(Nc3ccc(S(=O)(=O)Nc4ccccn4)cc3)n2)ccc1OC1CCOCC1` [compound 593, 4-({4-[3-Cyano-4-(tetrahydro-2H-pyran-4-yloxy)phenyl]pyrimidin-2-yl}amino)-N-(pyridin-2-yl) benzenesulfonamide], the IC50 in assay [1] is less than 100 nM; on IKKε it was less than 5 nM.

As to `N#Cc1cc(-c2ccnc(Nc3ccc(Cn4cnnn4)cc3)n2)ccc1OC1CCOCC1` [compound 629, 2-(Tetrahydro-2H-pyran-4-yloxy)-5-(2-{[4-(1H-tetrazol-1-ylmethyl)phenyl]amino}pyrimidin-4-yl)benzonitrile], the results for the IC50 (in assay [1]; on IKKε) were less than 100 nM and less than 5 nM, respectively.

In the case of `N#Cc1cc(-c2ccnc(Nc3ccc(Cn4cncn4)cc3)n2)ccc1OC1CCOCC1` [compound 624, 2-(Tetrahydro-2H-pyran-4-yloxy)-5-(2-{[4-(1H-1,2,4-triazol-1-ylmethyl)phenyl]amino}pyrimidin-4-yl)benzonitrile], the IC50 in assay [1] was less than 100 nM; at IKKε, less than 5 nM.

The record behind these values is patent publication US20150352108A1, “AMINO-PYRIMIDINE COMPOUNDS AS INHIBITORS OF TBK1 AND/OR IKK EPSILON” (Alzheimer's Institute of America, priority 2009, published 2015).
